Assay results: ChEMBL document CHEMBL1201861, “Genomics of Drug Sensitity in Cancer screening data, Wellcome Trust Sanger Institute”

Columns and labels:
Test in all cases: cells
Settings in all cases: Homo sapiens
COR-L88 = type: functional, cell-based;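 further: growth inhibition of COR-L88 cells, read out with a cell viability assay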
Description: SANGER: Inhibition of human COR-L88 cell growth in a cell viability assay.

D-263MG = type: functional, cell-based
Description: SANGER: Inhibition of human D-263MG cell growth in a cell viability assay.

D283 Med = type: functional, cell-based
Description: SANGER: Inhibition of human D-283MED cell growth in a cell viability assay.

DSH1 = type: functional, cell-based;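 further: growth inhibition of human DSH1 cells, measured with a cell viability readout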
Description: SANGER: Inhibition of human DSH1 cell growth in a cell viability assay.

EC-GI-10 = type: functional, cell-based
Description: SANGER: Inhibition of human EC-GI-10 cell growth in a cell viability assay.

EM-2 = type: functional, cell-based;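 further: growth inhibition of EM-2 cells, read out with a cell viability assay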
Description: SANGER: Inhibition of human EM-2 cell growth in a cell viability assay.

ES3 = type: functional, cell-based;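 further: growth inhibition of ES3 cells, read out with a cell viability assay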
Description: SANGER: Inhibition of human ES3 cell growth in a cell viability assay.

ES8 = type: functional, cell-based;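 further: growth inhibition of human ES8 cells, read out with a cell viability assay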
Description: SANGER: Inhibition of human ES8 cell growth in a cell viability assay.

EW-11 = type: functional, cell-based;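 further: growth inhibition of human EW-11 cells, measured with a cell viability assay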
Description: SANGER: Inhibition of human EW-11 cell growth in a cell viability assay.

EW-24 = type: functional, cell-based;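 further: human EW-24 cancer cell line, growth inhibition read out via a cell viability assay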
Description: SANGER: Inhibition of human EW-24 cell growth in a cell viability assay.

GCIY = type: functional, cell-based;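 further: growth inhibition of the human GCIY cell line, read out by a cell viability assay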
Description: SANGER: Inhibition of human GCIY cell growth in a cell viability assay.

GOTO = type: functional, cell-based;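 further: growth inhibition of GOTO cells, read out by a cell viability assay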
Description: SANGER: Inhibition of human GOTO cell growth in a cell viability assay.

GR-ST = type: functional, cell-based
Description: SANGER: Inhibition of human GR-ST cell growth in a cell viability assay.

GT3TKB = type: functional, cell-based;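 further: growth inhibition of the cell line, read out with a cell viability assay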
Description: SANGER: Inhibition of human GT3TKB cell growth in a cell viability assay.

HCE-4 = type: functional, cell-based;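 further: cell viability assay measuring inhibition of growth in the human HCE-4 cell line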
Description: SANGER: Inhibition of human HCE-4 cell growth in a cell viability assay.

HCE-T = type: functional, cell-based;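 further: cell viability assay read-out, reporting inhibition of HCE-T cell growth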
Description: SANGER: Inhibition of human HCE-T cell growth in a cell viability assay.

HEL = type: functional, cell-based;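 further: growth inhibition of HEL cells, read out with a cell viability assay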
Description: SANGER: Inhibition of human HEL cell growth in a cell viability assay.

HOP-62 = type: functional, cell-based;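 further: cell growth inhibition determined with a viability assay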
Description: SANGER: Inhibition of human HOP-62 cell growth in a cell viability assay.

IST-MES1 = type: functional, cell-based;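 further: growth inhibition of IST-MES1 cells, measured with a cell viability assay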
Description: SANGER: Inhibition of human IST-MES1 cell growth in a cell viability assay.

J-RT3-T3-5 = type: functional, cell-based;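 further: cell viability assay measuring growth inhibition of human J-RT3-T3-5 cells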
Description: SANGER: Inhibition of human J-RT3-T3-5 cell growth in a cell viability assay.

JVM-2 = type: functional, cell-based;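 further: growth inhibition of JVM-2 cells determined by a cell viability assay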
Description: SANGER: Inhibition of human JVM-2 cell growth in a cell viability assay.

K5 = type: functional, cell-based
Description: SANGER: Inhibition of human K5 cell growth in a cell viability assay.

KALS-1 = type: functional, cell-based;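 further: growth inhibition of KALS-1 cells, determined with a cell viability assay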
Description: SANGER: Inhibition of human KALS-1 cell growth in a cell viability assay.

KE-37 = type: functional, cell-based;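 further: growth inhibition of KE-37 cells, read out with a cell viability assay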
Description: SANGER: Inhibition of human KE-37 cell growth in a cell viability assay.

KNS-42 = type: functional, cell-based;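 further: growth inhibition of KNS-42 cells, read out with a cell viability assay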
Description: SANGER: Inhibition of human KNS-42 cell growth in a cell viability assay.

KNS-81-FD = type: functional, cell-based;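 further: growth inhibition of KNS-81-FD cells, read out with a cell viability assay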
Description: SANGER: Inhibition of human KNS-81-FD cell growth in a cell viability assay.

KS-1 = type: functional, cell-based;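 further: growth inhibition of KS-1 cells, read out with a cell viability assay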
Description: SANGER: Inhibition of human KS-1 cell growth in a cell viability assay.

KU812 cell line = type: functional, cell-based;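 further: growth inhibition of KU812 cells, read out with a cell viability assay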
Description: SANGER: Inhibition of human KU812 cell growth in a cell viability assay.

KURAMOCHI = type: functional, cell-based;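 further: growth inhibition of KURAMOCHI cells, read out with a cell viability assay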
Description: SANGER: Inhibition of human KURAMOCHI cell growth in a cell viability assay.

KY821 = type: functional, cell-based;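 further: growth inhibition of human KY821 cells, read out by a cell viability assay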
Description: SANGER: Inhibition of human KY821 cell growth in a cell viability assay.

LB1047-RCC = type: functional, cell-based;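 further: inhibition of cell growth, determined with a cell viability assay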
Description: SANGER: Inhibition of human LB1047-RCC cell growth in a cell viability assay.

LB373-MEL-D = type: functional, cell-based;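 further: growth inhibition of the cell line, read out in a cell viability assay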
Description: SANGER: Inhibition of human LB373-MEL-D cell growth in a cell viability assay.

LNCaP-Clone-FGC = type: functional, cell-based
Description: SANGER: Inhibition of human LNCaP-Clone-FGC cell growth in a cell viability assay.

LS-123 = type: functional, cell-based
Description: SANGER: Inhibition of human LS-123 cell growth in a cell viability assay.

LS-411N = type: functional, cell-based
Lu-65 = type: functional, cell-based;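 further: growth inhibition of Lu-65 cancer cells, read out by a cell viability assay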
Description: SANGER: Inhibition of human LU-65 cell growth in a cell viability assay.

MLMA = type: functional, cell-based;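 further: growth inhibition of MLMA cells (human), determined through a cell viability readout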
Description: SANGER: Inhibition of human MLMA cell growth in a cell viability assay.

MOLT-4 = type: functional, cell-based;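 further: growth inhibition of MOLT-4 cells, determined with a cell viability readout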
Description: SANGER: Inhibition of human MOLT-4 cell growth in a cell viability assay.

MSTO-211H = type: functional, cell-based
Description: SANGER: Inhibition of human MSTO-211H cell growth in a cell viability assay.

NB5 = type: functional, cell-based;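 further: growth inhibition of NB5 cells, read out as cell viability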
Description: SANGER: Inhibition of human NB5 cell growth in a cell viability assay.

NCI-H1648 = type: functional, cell-based;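 further: cell viability assay measuring inhibition of NCI-H1648 cell growth, from the Sanger screening data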
Description: SANGER: Inhibition of human NCI-H1648 cell growth in a cell viability assay.

NCI-H1650 = type: functional, cell-based;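 further: growth inhibition of human NCI-H1650 cells measured by a cell viability assay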
Description: SANGER: Inhibition of human NCI-H1650 cell growth in a cell viability assay.

NCI-H23 = type: functional, cell-based;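 further: cell viability assay measuring growth inhibition of NCI-H23 cells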
Description: SANGER: Inhibition of human NCI-H23 cell growth in a cell viability assay.

NCI-H720 = type: functional, cell-based;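 further: growth inhibition of human NCI-H720 cells determined by a cell viability assay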
Description: SANGER: Inhibition of human NCI-H720 cell growth in a cell viability assay.

NEC8 = type: functional, cell-based;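 further: growth inhibition of human NEC8 cells, read out by a cell viability assay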
Description: SANGER: Inhibition of human NEC8 cell growth in a cell viability assay.

NMC-G1 = type: functional, cell-based;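 further: growth inhibition of the NMC-G1 cell line, measured with a cell viability read-out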
Description: SANGER: Inhibition of human NMC-G1 cell growth in a cell viability assay.

NTERA-2-cl-D1 = type: functional, cell-based;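 further: inhibition of cell growth, measured with a cell viability assay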
Description: SANGER: Inhibition of human NTERA-S-cl-D1 cell growth in a cell viability assay.

OMC-1 = type: functional, cell-based;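 further: growth inhibition of the OMC-1 cell line, measured by a cell viability assay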
Description: SANGER: Inhibition of human OMC-1 cell growth in a cell viability assay.

P30-OHK = type: functional, cell-based;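 further: growth inhibition of the P30-OHK cell line, read out with a cell viability assay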
Description: SANGER: Inhibition of human P30-OHK cell growth in a cell viability assay.

RH-1 = type: functional, cell-based;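 further: growth inhibition of human RH-1 cells, read out with a cell viability assay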
Description: SANGER: Inhibition of human RH-1 cell growth in a cell viability assay.

SBC-1 = type: functional, cell-based;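 further: cell viability assay measuring growth inhibition of the SBC-1 cell line, IC50 being the concentration that halves growth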
Description: SANGER: Inhibition of human SBC-1 cell growth in a cell viability assay.

SCC-15 = type: functional, cell-based;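 further: growth inhibition of SCC-15 cells, read out with a cell viability assay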
Description: SANGER: Inhibition of human SCC-15 cell growth in a cell viability assay.

SH-4 = type: functional, cell-based;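 further: growth inhibition of SH-4 cells, read out with a cell viability assay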
Description: SANGER: Inhibition of human SH-4 cell growth in a cell viability assay.

SHP77 = type: functional, cell-based, SHP-77;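 further: growth inhibition of human SHP-77 cells measured by a cell viability assay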
Description: SANGER: Inhibition of human SHP-77 cell growth in a cell viability assay.

SK-N-DZ = type: functional, cell-based;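 further: growth inhibition of the cancer cell line, read out through a viability assay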
Description: SANGER: Inhibition of human SK-N-DZ cell growth in a cell viability assay.

SNU-C2B = type: functional, cell-based;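 further: cell viability readout used to measure compound-driven suppression of SNU-C2B cell proliferation, IC50 marking half-maximal growth inhibition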
Description: SANGER: Inhibition of human SNU-C2B cell growth in a cell viability assay.

8-MG-BA = type: functional, cell-based
Description: SANGER: Inhibition of human 8-MG-BA cell growth in a cell viability assay.

ALL-PO = type: functional, cell-based
Description: SANGER: Inhibition of human ALL-PO cell growth in a cell viability assay.

BB65-RCC = type: functional, cell-based
Description: SANGER: Inhibition of human BB65-RCC cell growth in a cell viability assay.

BT-474 = type: functional, cell-based
Description: SANGER: Inhibition of human BT-474 cell growth in a cell viability assay.

C2BBe1 = type: functional, cell-based
Description: SANGER: Inhibition of human C2BBe1 cell growth in a cell viability assay.

TK-10 = type: functional, cell-based
Description: SANGER: Inhibition of human TK10 cell growth in a cell viability assay.

U-266 = type: functional, cell-based
Description: SANGER: Inhibition of human U-266 cell growth in a cell viability assay.

CCRF-CEM = type: functional, cell-based
Description: SANGER: Inhibition of human CCRF-CEM cell growth in a cell viability assay.

CGTH-W-1 = type: functional, cell-based
Description: SANGER: Inhibition of human CGTH-W-1 cell growth in a cell viability assay.

COLO-668 = type: functional, cell-based
Description: SANGER: Inhibition of human COLO-668 cell growth in a cell viability assay.

Measured: IC50

COc1cc(Nc2c(C#N)cnc3cc(OCCCN4CCN(C)CC4)c(OC)cc23)c(Cl)cc1Cl [BOSUTINIB]
1.9 µM: BB65-RCC
1.13 µM: KY821
0.439 µM: EM-2
0.341 µM: KU812 cell line
0.907 µM: MLMA
1.52 µM: J-RT3-T3-5
1.24 µM: LB1047-RCC
1.62 µM: SCC-15
0.495 µM: KE-37
> 2 µM: all other assays above
